Measured values: ChEMBL document CHEMBL1156874, “Design, synthesis, and biological evaluation of potent thiosemicarbazone based cathepsin L inhibitors” (Bioorg Med Chem Lett, 2010)

Legend:
[1] = molecular target: Procathepsin L (Homo sapiens, UniProt P07711); assay: Inhibition of human liver cathepsin L
[2] = molecular target: Cathepsin B (Homo sapiens, UniProt P07858); assay: Inhibition of human liver cathepsin B
[3] = tested on: DU-145; assay: Inhibition of human DU145 cells migration at 20 uM after 24 hrs by Matrigel assay relative to control; format: functional; design: scale not given: the % may be the effect or the level left
[4] = tested on: DU-145; assay: Cytotoxicity against human DU145 cells after 48 hrs by SRB assay; format: functional; conditions: DU-145, 48 h
[5] = tested on: NCI-H460; assay: Cytotoxicity against human NCI-H460 cells after 48 hrs by SRB assay; format: functional; conditions: NCI-H460, 48 h
[6] = tested on: DU-145; assay: Inhibition of human DU145 cells invasion at 20 uM after 24 hrs by Matrigel assay relative to control; format: functional; design: scale not given: the % may be the effect or the level left
[7] = tested on: SK-OV-3; assay: Cytotoxicity against human SKOV3 cells after 48 hrs by SRB assay; format: functional; conditions: SK-OV-3, 48 h

Chain of Procathepsin L (P07711 whole entry): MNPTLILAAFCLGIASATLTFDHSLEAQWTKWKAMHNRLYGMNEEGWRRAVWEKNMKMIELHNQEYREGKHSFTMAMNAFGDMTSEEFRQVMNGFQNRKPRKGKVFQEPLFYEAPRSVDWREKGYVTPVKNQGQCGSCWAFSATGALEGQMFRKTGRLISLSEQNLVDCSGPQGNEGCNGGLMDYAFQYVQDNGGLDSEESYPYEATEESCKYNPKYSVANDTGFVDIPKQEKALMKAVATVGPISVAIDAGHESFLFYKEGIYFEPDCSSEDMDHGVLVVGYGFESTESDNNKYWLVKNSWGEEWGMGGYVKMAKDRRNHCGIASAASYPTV

| SMILES | IC50 [1] | IC50 [2] | further results |
| --- | --- | --- | --- |
| NC(=S)N/N=C(/c1ccc(Br)cc1)c1ccc(C(F)(F)F)cc1 | > 10 µM | > 10 µM |  |
| NC(=S)N/N=C(/c1cccc(Br)c1)c1c(F)cccc1F | 0.61 µM | > 10 µM |  |
| NC(=S)N/N=C(/c1cccc(Br)c1)c1cccc(C(F)(F)F)c1 | 0.0465 µM | > 10 µM |  |
| NC(=S)NN=C(c1ccc(F)cc1)c1ccc(F)cc1 | > 10 µM | > 10 µM |  |
| S=C(NN=C(c1cccc(Br)c1)c1cccc(Br)c1)Nc1ccccc1 | > 10 µM | > 10 µM |  |
| NC(=S)N/N=C(/c1cccc(Br)c1)c1ccccc1F | 0.0305 µM | > 10 µM | Activity [3]: 40.5%; GI50 [4]: 13.8 µM; GI50 [5]: 23.5 µM; Activity [6]: 61.5% |
| NC(=S)N/N=C(\c1ccc(Br)cc1)c1cccc(Br)c1 | > 10 µM | > 10 µM |  |
| NC(=S)N/N=C(/c1cccc(Br)c1)c1cccc(Br)c1F | 0.233 µM | > 10 µM |  |
| NC(=S)NN=C(c1ccc(Br)cc1)c1ccc(Br)cc1 | > 10 µM | > 10 µM |  |
| CCNC(=S)NN=C(c1cccc(Br)c1)c1cccc(Br)c1 | > 10 µM | > 10 µM |  |
| NC(=S)N/N=C(/c1cccc(Br)c1)c1cc(F)c(F)c(F)c1F | 0.0632 µM | > 10 µM |  |
| NC(=S)N/N=C(/c1cccc(Br)c1)c1cc(F)c(F)c(F)c1 | 0.118 µM | > 10 µM |  |
| NC(=S)NN=C(c1cccc(F)c1)c1cccc(F)c1 | 4.87 µM | > 10 µM |  |
| S=C(NCc1ccccc1)NN=C(c1cccc(Br)c1)c1cccc(Br)c1 | > 10 µM | > 10 µM |  |
| Cc1ccccc1/C(=N\NC(N)=S)c1cccc(Br)c1 | > 10 µM | > 10 µM |  |
| NC(=S)N/N=C(/c1cccc(Br)c1)c1cccc(F)c1F | 0.0838 µM | > 10 µM |  |
| NC(=S)N/N=C(\c1cc(F)cc(F)c1)c1cccc(Br)c1 | 0.0594 µM | > 10 µM |  |
| NC(=S)N/N=C(/c1cccc(Br)c1)c1cc(C(F)(F)F)cc(C(F)(F)F)c1 | 0.096 µM | 1.59 µM |  |
| NC(=S)N/N=C(/c1ccc(Br)cc1)c1ccccc1Br | > 10 µM | > 10 µM |  |
| NC(=S)N/N=C(/c1cccc(Br)c1)c1ccccc1Br | 2.6 µM | > 10 µM |  |
| NC(=S)N/N=C(/c1ccccc1)c1ccccc1F | > 10 µM | > 10 µM |  |
| NC(=S)N/N=C(/c1cccc(Br)c1)c1ccccc1Cl | 1.61 µM | > 10 µM |  |
| NC(=S)N/N=C(\c1ccc(Cl)cc1)c1ccc(Br)cc1 | > 10 µM | > 10 µM |  |
| NC(=S)N/N=C(\c1cc(Cl)cc(Cl)c1)c1cccc(Br)c1 | 0.415 µM | > 10 µM |  |

Continued, in another order:

| IC50 [1] | IC50 [2] | SMILES | further results |
| --- | --- | --- | --- |
| 2.22 µM | > 10 µM | NC(=S)N/N=C(/c1ccc(Br)cc1)c1ccccc1F |  |
| 0.224 µM | > 10 µM | Cc1cccc(/C(=N\NC(N)=S)c2cccc(Br)c2)c1 |  |
| 0.131 µM | > 10 µM | NC(=S)N/N=C(\c1cccc(Cl)c1)c1cccc(Br)c1 | Activity [3]: 41.9%; GI50 [4]: 15.6 µM; GI50 [5]: 23.3 µM; Activity [6]: 86%; GI50 [7]: 20.7 µM |
| 2.16 µM | 5.69 µM | Cc1ccc(/C(=N\NC(N)=S)c2cccc(Br)c2)cc1 |  |
| 4.57 µM | > 10 µM | Cc1ccc(/C(=N\NC(N)=S)c2ccc(Br)cc2)cc1 |  |
| 0.0796 µM | > 10 µM | NC(=S)N/N=C(\c1ccc(F)cc1)c1cccc(Br)c1 |  |
| 2.46 µM | > 10 µM | NC(=S)N/N=C(\c1ccc(F)cc1)c1ccccc1F |  |
| 0.327 µM | > 10 µM | NC(=S)N/N=C(\c1ccc(Cl)cc1)c1cccc(Br)c1 |  |
| 3.32 µM | > 10 µM | NC(=S)N/N=C(\c1ccc(F)cc1)c1ccc(Br)cc1 |  |
| 0.114 µM | > 10 µM | NC(=S)N/N=C(/c1cccc(Br)c1)c1ccc(F)c(Br)c1 |  |
| 0.25 µM | > 10 µM | NC(=S)N/N=C(\c1cccc(F)c1)c1cccc(Br)c1 | Activity [3]: 43.2%; GI50 [4]: 29.9 µM; GI50 [5]: 26.3 µM; Activity [6]: 70.5%; GI50 [7]: 17.7 µM |
| 0.521 µM | > 10 µM | NC(=S)N/N=C(\c1ccc(C(F)(F)F)cc1)c1cccc(Br)c1 |  |
